The source of these data is patent US10669272B2, “Substituted naphthyridinone compounds useful as T cell activators” (BRISTOL-MYERS SQUIBB COMPANY, priority 2018, dated 2020).

Molecules are shown by their SMILES. pEC50, pIC50: −log10 of the molar value.

Experiment [1] deals with T1, human DGKα (Homo sapiens, UniProt P23743).
T1 construct: TVMV protease cleavage site (C); Hexa-His (C); made in house; host or cells: Sf9 insect cells (baculovirus, Bac-to-Bac)
The experiment can be described thus: DGKα LIPGLO assay (extruded liposome substrate), in vitro DGK inhibition. Particulars: liposome (LIPGLO) assay; read-out: DGKa LIPGLO IC50. The format is biochemical.

In experiment [2] the test system is Human venous whole blood. Nature of the experiment: Human whole blood IFN-γ assay.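 Note: blood from healthy donors exposed to compound for 1 h before stimulation with anti-CD3 and anti-CD28 at 1 µg/mL each, IFN-γ quantified in supernatant by AlphaLISA.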 Type of experiment: cell-based. The conditions noted are these: Homo sapiens, 24 h, human whole blood; normalized to 3 μM reference compound with anti-CD3 plus anti-CD28 as 100% activation; read-out: INFg Whole Blood Normalized Agonist EC50.
Procedure: Human Whole Blood IFN-γ Assay
Human venous whole blood (22.5 μL per well), obtained from healthy donors, was pre-treated with compounds for one hour at 37° C. in a humidified 95% air/5% CO2 incubator. The blood was stimulated with 2.5 μL anti-human CD3 and anti-CD28 mAb at a final concentration of 1 μg/mL each for 24 hours at 37° C. IFN-γ in the supernatants was measured using AlphLISA kit (Cat # AL217).
In experiment [3] the test system is naïve human CD8 T cells. The experiment can be described thus: Human CD8 T cells IFN-γ assay.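 Note: Naïve human CD8 T cells stimulated with plate-bound anti-CD3 and soluble anti-CD28, IFN-γ in supernatant quantified by AlphaLISA and converted to pg/mL.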 Type of experiment: cell-based. The conditions noted are these: Homo sapiens, T-cell, 20 h, normalized to 3 μM reference compound with anti-CD3 plus anti-CD28 as 100% activation; read-out: HuCD8 INFG Normalized EC50.
Procedure: Human CD8 T Cells IFN-γ Assay
Frozen naïve human CD8 T cells were thawed in AIM-V media, incubated for 2 h in 37° C., and counted. The 384-well tissue culture plate was coated overnight at 4° C. with 20 μL anti-human CD3 at 0.05 μg/mL in PBS, which was removed off the plate before 40,000 cells per 40 microliters CD8 T cells with 0.1 μg/mL soluble anti-human CD28 were added to each well. The compounds were transferred using an Echo liquid handler to the cell plate immediately after the cells were plated. After 20 h incubation at 37° C. incubator, 3 microliters per well supernatants transferred into a new 384-well white assay plate for cytokine measurement.
Interferon-γ (IFN-γ) was quantitated using the AlphLISA kit (Cat # AL217) as described by the manufacturer manual (Perkin Elmer). The counts from each well were converted to IFN-γ concentration (pg/mL).
The target in experiment [4] is T2, human DGKζ (Homo sapiens, UniProt Q13574).
T2 construct: TVMV protease cleavage site (C); Hexa-His (C); made in house; host or cells: Sf9 insect cells (baculovirus, Bac-to-Bac)
The experiment can be described thus: DGKζ LIPGLO assay (extruded liposome substrate), in vitro DGK inhibition. Particulars: liposome (LIPGLO) assay; read-out: DGKz LIPGLO IC50. Type of experiment: biochemical.

Experiment [5] deals with OT-1 CD8+ T cells with SIINFEKL-loaded MC38 tumor cells. Nature of the experiment: Murine cytotoxic T lymphocyte assay (IFN-γ, OT-1 CTL with MC38 tumor cells). The format is cell-based, mouse. The conditions noted are these: Mus musculus, MC-38; read-out: msCTL INFg IC50. The procedure, abridged:
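IFN-γ was quantified by AlphaLISA in supernatants after 24 h co-culture at 37° C. Effectors were OT-1 CD8+ CTLs (5-day peptide/mIL2 expansion), exposed 1 h to DGK inhibitors before mixing 1:10 with MC38 tumor cells loaded 3 h with 1 μg/mL SIINFEKL peptide.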

T1 sequence (P23743 with tags, fused parts or gaps): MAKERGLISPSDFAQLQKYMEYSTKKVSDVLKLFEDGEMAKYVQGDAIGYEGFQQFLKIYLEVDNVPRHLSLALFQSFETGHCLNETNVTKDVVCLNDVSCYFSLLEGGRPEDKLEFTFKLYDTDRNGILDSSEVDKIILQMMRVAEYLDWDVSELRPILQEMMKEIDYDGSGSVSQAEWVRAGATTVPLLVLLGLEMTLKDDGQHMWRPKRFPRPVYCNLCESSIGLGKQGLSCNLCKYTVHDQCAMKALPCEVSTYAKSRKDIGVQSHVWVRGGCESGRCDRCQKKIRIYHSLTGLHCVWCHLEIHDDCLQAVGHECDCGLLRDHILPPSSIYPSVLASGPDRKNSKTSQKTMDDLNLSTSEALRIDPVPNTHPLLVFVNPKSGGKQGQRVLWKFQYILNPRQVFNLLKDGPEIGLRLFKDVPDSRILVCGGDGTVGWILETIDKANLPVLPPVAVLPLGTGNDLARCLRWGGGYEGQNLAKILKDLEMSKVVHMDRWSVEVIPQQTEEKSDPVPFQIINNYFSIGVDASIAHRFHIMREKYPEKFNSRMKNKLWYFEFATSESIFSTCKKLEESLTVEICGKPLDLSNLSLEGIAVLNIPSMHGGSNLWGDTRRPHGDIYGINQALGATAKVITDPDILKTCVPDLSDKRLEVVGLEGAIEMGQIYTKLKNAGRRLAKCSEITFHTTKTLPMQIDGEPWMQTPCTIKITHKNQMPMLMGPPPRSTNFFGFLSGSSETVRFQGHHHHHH
T2 sequence (Q13574 with tags, fused parts or gaps isoform Q13574-4): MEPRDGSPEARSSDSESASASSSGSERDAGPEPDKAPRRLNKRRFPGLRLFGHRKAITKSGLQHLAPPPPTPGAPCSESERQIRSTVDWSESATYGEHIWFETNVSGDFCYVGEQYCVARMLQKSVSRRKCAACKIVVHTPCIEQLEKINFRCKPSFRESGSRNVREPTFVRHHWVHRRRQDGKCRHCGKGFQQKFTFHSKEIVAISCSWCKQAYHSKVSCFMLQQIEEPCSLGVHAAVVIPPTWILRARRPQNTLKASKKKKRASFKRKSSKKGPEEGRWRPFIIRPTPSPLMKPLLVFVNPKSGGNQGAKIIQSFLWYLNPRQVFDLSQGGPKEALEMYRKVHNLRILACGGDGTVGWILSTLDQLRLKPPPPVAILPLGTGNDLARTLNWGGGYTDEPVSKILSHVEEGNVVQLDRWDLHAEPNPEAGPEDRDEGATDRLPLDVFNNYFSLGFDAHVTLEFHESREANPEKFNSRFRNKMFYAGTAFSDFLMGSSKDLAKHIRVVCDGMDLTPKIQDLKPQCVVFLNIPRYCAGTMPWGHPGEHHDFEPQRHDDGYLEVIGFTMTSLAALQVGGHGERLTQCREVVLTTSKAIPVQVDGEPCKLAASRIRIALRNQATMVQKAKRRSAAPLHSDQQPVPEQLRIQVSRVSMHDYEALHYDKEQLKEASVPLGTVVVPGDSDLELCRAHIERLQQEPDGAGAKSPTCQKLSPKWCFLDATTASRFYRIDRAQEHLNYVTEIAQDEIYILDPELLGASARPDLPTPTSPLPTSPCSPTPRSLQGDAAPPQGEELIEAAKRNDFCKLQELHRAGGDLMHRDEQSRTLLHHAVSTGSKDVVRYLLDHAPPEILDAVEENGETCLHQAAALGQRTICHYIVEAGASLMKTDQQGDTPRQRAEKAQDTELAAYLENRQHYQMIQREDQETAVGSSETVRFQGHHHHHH

The pIC50 is the IC50 on a negative log10 scale, so that one unit is a factor of ten. What is called pEC50 is −log10 of the EC50, conventionally taken in molar units. As for `Cc1cc(C2CN(c3cc(=O)n(C)c4ccc(C#N)nc34)CC(C)N2C(c2ccc(F)cc2)c2ccc(F)cc2)ccn1` (stereo not shown) [Example 84, 8-(4-(bis(4-fluorophenyl)methyl)-3-methyl-5-(2-methylpyridin-4-yl)piperazin-1-yl)-5-methyl-6-oxo-5,6-dihydro-1,5-naphthyridine-2-carbonitrile], the pIC50 in experiment [1] was 4.09; in experiment [4], 3.62; in experiment [5] it was 5.00. The pEC50 was 4.70 in experiment [2] and 5.00 in experiment [3].
Regarding `Cc1c(N2CCN(C(c3ccc(F)cc3)c3ccc(F)cc3)[C@H](C)C2)c2nc(C#N)ccc2n(C)c1=O` [Example 99, (R)-8-(4-(bis(4-fluorophenyl)methyl)-3-methylpiperazin-1-yl)-5,7-dimethyl-6-oxo-5,6-dihydro-1,5-naphthyridine-2-carbonitrile], the pIC50 in experiment [1] is 5.15; in experiment [4], 5.55; in experiment [5], 5.92. Moreover, the values for the pEC50 in experiment [2] and in experiment [3] were 5.55 and 6.77, respectively.
With `C[C@@H]1CN(c2cc(=O)n(C)c3ccc(C#N)nc23)CCN1C(c1ccc(Cl)cc1)c1ccc(Cl)cc1` [Example 104, (R)-8-(4-(bis(4-chlorophenyl)methyl)-3-methylpiperazin-1-yl)-5-methyl-6-oxo-5,6-dihydro-1,5-naphthyridine-2-carbonitrile, dimethylformamide], the values for the pIC50 in experiment [1], in experiment [4] and in experiment [5] were 5.36, 5.36 and 6.25, respectively. Besides, the values for the pEC50 in experiment [2] and in experiment [3] were 5.19 and 6.74, respectively.
Regarding `CC[C@H]1CN(c2cc(=O)n(C)c3ccc(C#N)nc23)CCN1C(c1ccc(F)cc1)c1ccc(F)cc1` [Example 128, (S)-8-(4-(bis(4-fluorophenyl)methyl)-3-ethylpiperazin-1-yl)-5-methyl-6-oxo-5,6-dihydro-1,5-naphthyridine-2-carbonitrile], the figures for the pIC50 in experiment [1], in experiment [4] and in experiment [5] were 4.33, 5.70 and 6.03, respectively. Moreover, the results for the pEC50 in experiment [2] and in experiment [3] were 4.70 and 5.85, respectively.
On the same counts, the results for `C[C@@H]1CN(C(c2ccc(F)cc2)c2ccc(F)cc2)[C@H](C)CN1c1c(Cl)c(=O)n(C)c2ccc(C#N)nc12` [Example 132, 8-((2R,5R)-4-(bis(4-fluorophenyl)methyl)-2,5-dimethylpiperazin-1-yl)-7-chloro-5-methyl-6-oxo-5,6-dihydro-1,5-naphthyridine-2-carbonitrile] are 4.29, 5.57, 5.15, 5.08 and 5.68.
Consider `C[C@@H]1CN(C(c2ccc(F)cc2)c2ccc(F)cc2)CCN1c1cc(=O)n(C)c2ccc(C#N)nc12` [Example 135, (R)-8-(4-(bis(4-fluorophenyl)methyl)-2-methylpiperazin-1-yl)-5-methyl-6-oxo-5,6-dihydro-1,5-naphthyridine-2-carbonitrile], for which the values for the pIC50 in experiment [1], in experiment [4] and in experiment [5] were 3.96, 5.00 and 5.44, respectively. For the same compound, the values for the pEC50 in experiment [2] and in experiment [3] were 4.21 and 5.00, respectively.
For `C[C@@H]1CN(c2c(F)c(=O)n(C)c3ccc(C#N)nc23)[C@@H](C)CN1C(c1ccc(F)cc1)c1ccc(F)cc1` [Example 157, 8-((2S,5R)-4-(bis(4-fluorophenyl)methyl)-2,5-dimethylpiperazin-1-yl)-7-fluoro-5-methyl-6-oxo-5,6-dihydro-1,5-naphthyridine-2-carbonitrile], the figures for the pIC50 in experiment [1], in experiment [4] and in experiment [5] were 6.46, 6.42 and 7.11, respectively. The results for the pEC50 in experiment [2] and in experiment [3] were 6.28 and 7.14, respectively.
Take `C[C@@H]1CN(c2c(C#N)c(=O)n(C)c3ccc(C#N)nc23)[C@@H](C)CN1C(c1ccc(F)cc1)c1ccc(F)cc1` [Example 159, 8-((2S,5R)-4-(bis(4-fluorophenyl)methyl)-2,5-dimethylpiperazin-1-yl)-5-methyl-6-oxo-5,6-dihydro-1,5-naphthyridine-2,7-dicarbonitrile]: the values for the pIC50 in experiment [1], in experiment [4] and in experiment [5] were 5.55, 6.02 and 6.85, respectively. In addition, the pEC50 in experiment [2] is 6.00; in experiment [3] it was 7.46.
For `C[C@@H]1CN(c2c(C#N)c(=O)n(C)c3cccnc23)[C@@H](C)CN1C(c1ccc(F)cc1)c1ccc(F)cc1` [Example 160, 4-((2S,5R)-4-(bis(4-fluorophenyl)methyl)-2,5-dimethylpiperazin-1-yl)-1-methyl-2-oxo-1,2-dihydro-1,5-naphthyridine-3-carbonitrile], the results for the pIC50 in experiment [1], in experiment [4] and in experiment [5] were 5.62, 4.36 and 5.00, respectively. In addition, the pEC50 in experiment [2] was 4.70; in experiment [3] it was 5.00.
Turning to `C[C@@H]1CN(c2c([N+](=O)[O-])c(=O)n(C)c3ccc(C#N)nc23)[C@@H](C)CN1C(c1ccc(F)cc1)c1ccc(F)cc1` [Example 161, 8-((2S,5R)-4-(bis(4-fluorophenyl)methyl)-2,5-dimethylpiperazin-1-yl)-5-methyl-7-nitro-6-oxo-5,6-dihydro-1,5-naphthyridine-2-carbonitrile], the pIC50 was 4.17 in experiment [1], 4.54 in experiment [4] and 5.82 in experiment [5]. The pEC50 in experiment [2] is 5.07; in experiment [3] it was 6.28.
In the case of `CC(C)[C@@H]1CN(c2cc(=O)n(C)c3ccc(C#N)nc23)CCN1C(c1ccc(Cl)cc1)c1ccc(Cl)cc1` [Example 167, (R)-8-(4-(bis(4-chlorophenyl)methyl)-3-isopropylpiperazin-1-yl)-5-methyl-6-oxo-5,6-dihydro-1,5-naphthyridine-2-carbonitrile], the pIC50 in experiment [1] was 5.11; in experiment [4] it was 4.24; in experiment [5] it was 5.00. Besides, the pEC50 was 4.70 in experiment [2] and 5.00 in experiment [3].
For the compound `CC(C)[C@@H]1CN(c2cc(=O)n(C)c3ccc(C#N)nc23)CCN1C(c1ccc(F)cc1)c1ccc(F)cc1` [Example 168, (R)-8-(4-(bis(4-fluorophenyl)methyl)-3-isopropylpiperazin-1-yl)-5-methyl-6-oxo-5,6-dihydro-1,5-naphthyridine-2-carbonitrile], the pIC50 was 5.12 in experiment [1], 3.62 in experiment [4] and 6.29 in experiment [5]. Besides, the pEC50 in experiment [2] and in experiment [3] was 5.00 throughout.
On to `CC(C)[C@@H]1CN(c2c(C#N)c(=O)n(C)c3ccc(C#N)nc23)CCN1C(c1ccc(F)cc1)c1ccc(F)cc1` [Example 169, (R)-8-(4-(bis(4-fluorophenyl)methyl)-3-isopropylpiperazin-1-yl)-5-methyl-6-oxo-5,6-dihydro-1,5-naphthyridine-2,7-dicarbonitrile], for which the pIC50 in experiment [1] is 5.49; in experiment [4] it was 4.11; in experiment [5] it was 5.59. In addition, the pEC50 in experiment [2] was 4.89; in experiment [3], 6.36.
`CC[C@@H]1CN(c2cc(=O)n(C)c3ccc(C#N)nc23)CCN1C(c1ccc(F)cc1)c1ccc(F)cc1` [Example 172, (R)-8-(4-(bis(4-fluorophenyl)methyl)-3-ethylpiperazin-1-yl)-5-methyl-6-oxo-5,6-dihydro-1,5-naphthyridine-2-carbonitrile]: the pIC50 is 5.72 in experiment [1], 5.85 in experiment [4] and 7.41 in experiment [5]. In addition, the pEC50 in experiment [2] is 5.89; in experiment [3], 7.44.
The matching figures for `CC[C@@H]1CN(c2c(C#N)c(=O)n(C)c3ccc(C#N)nc23)CCN1C(c1ccc(F)cc1)c1ccc(F)cc1` [Example 173, (R)-8-(4-(bis(4-fluorophenyl)methyl)-3-ethylpiperazin-1-yl)-5-methyl-6-oxo-5,6-dihydro-1,5-naphthyridine-2,7-dicarbonitrile]: 6.02, 5.85, 7.35, 6.00 and 7.60.
Consider `CC[C@@H]1CN(c2c(F)c(=O)n(C)c3ccc(C#N)nc23)CCN1C(c1ccc(F)cc1)c1ccc(F)cc1` [Example 174, (R)-8-(4-(bis(4-fluorophenyl)methyl)-3-ethylpiperazin-1-yl)-7-fluoro-5-methyl-6-oxo-5,6-dihydro-1,5-naphthyridine-2-carbonitrile], for which the pIC50 is 6.09 in experiment [1], 6.37 in experiment [4] and 6.96 in experiment [5]. Moreover, the pEC50 in experiment [2] is 5.66; in experiment [3], 7.47.
On the same counts, the results for `CC[C@@H]1CN(c2c(Cl)c(=O)n(C)c3ccc(C#N)nc23)CCN1C(c1ccc(F)cc1)c1ccc(F)cc1` [Example 175, (R)-8-(4-(bis(4-fluorophenyl)methyl)-3-ethylpiperazin-1-yl)-7-chloro-5-methyl-6-oxo-5,6-dihydro-1,5-naphthyridine-2-carbonitrile] are 5.62, 6.48, 6.21, 5.37 and 7.29.
